# Biological target: T1, FimH (Escherichia coli, UniProt Q1R2J4)
# T1 construct: performed with UTI89 bacteria and guinea pig red blood cells; endogenous in cells; host or cells: UTI89 bacteria (whole cells, type 1 piliated)
# Assay type: cell-based
# Details: concentration reducing bacterial agglutination of guinea pig red blood cells by greater than 90%; UTI89 bacteria
# Method: The hemagglutination inhibition (HAI) assay was performed with UTI89 bacteria and guinea pig red blood cells, as previously described (S. J. Hultgren, W. R. Schwan, A. J. Schaeffer, J. L. Duncan Infect. Immun. 1986, 54, 613-620).
row,Structure (SMILES),HAI titer EC>90
1,"O=C1NCCc2ccc(-c3ccc([C@H](O)[C@H]4O[C@H](CO)[C@@H](O)[C@H](O)[C@@H]4O)c(C(F)(F)F)c3)cc21 [Example 34, 7-(4-((S)-hydroxy ((2R,3S,4S,5S,6R)-3,4,5-trihydroxy-6-(hydroxymethyl)tetrahydro-2H-pyran-2-yl)methyl)-3-(trifluoromethyl)phenyl)-3,4-dihydroisoquinolin-1 (2H)-one]",3 µM
2,"CNC(=O)c1cccc(-c2ccc([C@@H](OC)[C@H]3O[C@H](CO)[C@@H](O)[C@H](O)[C@@H]3O)c(C)c2)c1 [Example 7, 4′-((R)-methoxy((2S,3S,4S,5S,6R)-3,4,5-trihydroxy-6-(hydroxymethyl)tetrahydro-2H-pyran-2-yl)methyl)-N,3′-dimethylbiphenyl-3-carboxamide]",2 µM
3,"Cc1cc(-c2cccc3c2CNC3=O)ccc1[C@@H](O)[C@H]1O[C@H](CO)[C@@H](O)[C@H](O)[C@@H]1O [Example 13, 4-(4-((R)-Hydroxy ((2R,3S,4S,5S,6R)-3,4,5-trihydroxy-6-(hydroxymethyl)-tetrahydro-2H-pyran-2-yl)methyl)-3-methylphenyl)isoindolin-1-one]",0.083 µM
4,"Cc1cc(-n2cc(-c3cccnc3)nn2)ccc1[C@@H](O)[C@H]1O[C@H](CO)[C@@H](O)[C@H](O)[C@@H]1O [Example 49, (2R,3S,4S,5S,6R)-2-((R)-hydroxy(2-methyl-4-(4-(pyridin-3-yl)-1H-1,2,3-triazol-1-yl)-phenyl)methyl)-6-(hydroxymethyl)tetrahydro-2H-pyran-3,4,5-triol]",0.015 µM
5,"CNC(=O)c1cc(C(=O)NC)cc(-c2ccc([C@@H](O)[C@H]3O[C@H](CO)[C@@H](O)[C@H](O)[C@@H]3O)c(C)c2)c1 [Example 38, 4′-((R)-Hydroxy ((2R,3S,4S,5S,6R)-3,4,5-trihydroxy-6-(hydroxymethyl)-tetrahydro-2H-pyran-2-yl)methyl)-N^3,N^5,3′-trimethylbiphenyl-3,5-dicarboxamide]",0.007 µM
6,"Cc1cc(-c2ccnc(N)c2)ccc1[C@@H](O)[C@H]1O[C@H](CO)[C@@H](O)[C@H](O)[C@@H]1O [Example 26, (2R,3S,4S,5S,6R)-2-((R)-(4-(2-Aminopyridin-4-yl)-2-methylphenyl) (hydroxy)methyl)-6-(hydroxymethyl)-tetrahydro-2H-pyran-3,4,5-triol]",0.039 µM
7,"Cc1cc(-c2cccc3c2CCN(C)C3)ccc1[C@@H](O)[C@H]1O[C@H](CO)[C@@H](O)[C@H](O)[C@@H]1O [Example 5, (2R,3S,4S,5S,6R)-2-((R)-hydroxy(2-methyl-4-(2-methyl-1,2,3,4-tetrahydroisoquinolin-5-yl)phenyl)methyl)-6-(hydroxymethyl)tetrahydro-2H-pyran-3,4,5-triol]",1 µM
8,"Cc1cc(-c2ccc3ccncc3c2)ccc1[C@@H](O)[C@H]1O[C@H](CO)[C@@H](O)[C@H](O)[C@@H]1O [Example 21, (2R,3S,4S,5S,6R)-2-((R)-Hydroxy (4-(isoquinolin-7-yl)-2-methylphenyl)methyl)-6-(hydroxymethyl)-tetrahydro-2H-pyran-3,4,5-triol]",0.016 µM
9,"Cc1cc(-c2cccc(C#N)c2)ccc1[C@@H](O)[C@H]1O[C@H](CO)[C@@H](O)[C@H](O)[C@@H]1O [Example 51, 4′-((R)-hydroxy((2R,3S,4S,5S,6R)-3,4,5-trihydroxy-6-(hydroxymethyl)tetrahydro-2H-pyran-2-yl)methyl)-3′-methylbiphenyl-3-carbonitrile]",0.026 µM
10,"CNC(=O)c1cccc(-c2ccc([C@@H](O)[C@H]3O[C@H](CO)[C@@H](O)[C@H](O)[C@@H]3O)c(C(F)(F)F)c2)c1 [Example 39, 4′-((R)-Hydroxy ((2R,3S,4S,5S,6R)-3,4,5-trihydroxy-6-(hydroxymethyl)-tetrahydro-2H-pyran-2-yl)methyl)-N-methyl-5′-(trifluoromethyl)biphenyl-3-carboxamide]",0.015 µM
11,"CNC(=O)c1cc(C#N)cc(-c2ccc([C@@H](O)[C@H]3O[C@H](CO)[C@@H](O)[C@H](O)[C@@H]3O)c(C)c2)c1 [Example 42, 5-Cyano-4′-((R)-hydroxy ((2R,3S,4S,5S,6R)-3,4,5-trihydroxy-6-(hydroxymethyl)-tetrahydro-2H-pyran-2-yl)methyl)-N,5′-dimethylbiphenyl-3-carboxamide]",0.006 µM
12,"Cc1cc(-c2ccc3c(c2)C(=O)N(C)CC3)ccc1[C@@H](O)[C@H]1O[C@H](CO)[C@@H](O)[C@H](O)[C@@H]1O [Example 12, 7-(4-((R)-Hydroxy ((2R,3S,4S,5S,6R)-3,4,5-trihydroxy-6-(hydroxymethyl)-tetrahydro-2H-pyran-2-yl)methyl)-3-methylphenyl)-2-methyl-3,4-dihydroisoquinolin-1 (2H)-one]",0.008 µM
13,"Cc1cc(-c2ccc3cc[nH]c(=O)c3c2)cc(C)c1[C@@H](O)[C@H]1OC(CO)[C@@H](O)[C@H](O)C1O (single isomer, unassigned) [Example 29]",0.108 µM
14,"Cc1cc(-c2ccc3onc(N)c3c2)ccc1[C@@H](O)[C@H]1O[C@H](CO)[C@@H](O)[C@H](O)[C@@H]1O [Example 28, (2R,3S,4S,5S,6R)-2-((R)-(4-(3-Aminobenzo[d]isoxazol-5-yl)-2-methylphenyl) (hydroxy)methyl)-6-(hydroxymethyl)-tetrahydro-2H-pyran-3,4,5-triol]",0.027 µM
15,"CNC(=O)c1cccc(-c2ccc(C(F)(F)[C@H]3O[C@H](CO)[C@@H](O)[C@H](O)[C@@H]3O)c(C)c2)c1 [Example 9, 4′-(difluoro((2S,3S,4S,5S,6R)-3,4,5-trihydroxy-6-(hydroxymethyl)tetrahydro-2H-pyran-2-yl)methyl)-N,3′-dimethylbiphenyl-3-carboxamide]",1.5 µM
16,"Cc1cc(-c2ccc3ccn(C)c(=O)c3c2)ccc1[C@@H](O)[C@H]1O[C@H](CO)[C@@H](O)[C@H](O)[C@@H]1O [Example 11, 7-(4-((R)-Hydroxy ((2R,3S,4S,5S,6R)-3,4,5-trihydroxy-6-(hydroxymethyl)-tetrahydro-2H-pyran-2-yl)methyl)-3-methylphenyl)-2-methylisoquinolin-1 (2H)-one]",0.011 µM
17,"Cc1cc(-c2ccc3c(c2)C(=O)NC3)ccc1[C@@H](O)[C@H]1O[C@H](CO)[C@@H](O)[C@H](O)[C@@H]1O [Example 19, 6-(4-((R)-Hydroxy ((2R,3S,4S,5S,6R)-3,4,5-trihydroxy-6-(hydroxymethyl)-tetrahydro-2H-pyran-2-yl)methyl)-3-methylphenyl)isoindolin-1-one]",0.016 µM
18,"Cc1cc(-c2ccc3cc[nH]c(=O)c3c2)cc(C)c1[C@H](O)[C@H]1OC(CO)[C@@H](O)[C@H](O)C1O (single isomer, unassigned) [Example 30]",0.406 µM
19,"CNC(=O)c1cccc(-c2ccc([C@@H](N)[C@H]3O[C@H](CO)[C@@H](O)[C@H](O)[C@@H]3O)c(C)c2)c1 [Example 6, 4′-((R)-amino((2R,3S,4R,5S,6R)-3,4,5-trihydroxy-6-(hydroxymethyl)tetrahydro-2H-pyran-2-yl)methyl)-N,3′-dimethylbiphenyl-3-carboxamide]",0.5 µM
20,"Cc1cc(-c2ccc3nc[nH]c3c2)ccc1[C@@H](O)[C@H]1O[C@H](CO)[C@@H](O)[C@H](O)[C@@H]1O [Example 17, (2R,3S,4S,5S,6R)-2-((R)-(4-(3H-Benzo[d]imidazol-5-yl)-2-methylphenyl) (hydroxy)methyl)-6-(hydroxymethyl)-tetrahydro-2H-pyran-3,4,5-triol]",0.037 µM
21,"CNC(=O)c1cncc(-c2ccc([C@@H](O)[C@H]3O[C@H](CO)[C@@H](O)[C@H](O)[C@@H]3O)c(C)c2)c1 [Example 35, 5-(4-((R)-Hydroxy ((2R,3S,4S,5S,6R)-3,4,5-trihydroxy-6-(hydroxymethyl)-tetrahydro-2H-pyran-2-yl)methyl)-3-methylphenyl)-N-methylnicotinamide]",0.01 µM
22,"Cc1cc(-c2ccc3cccnc3c2)ccc1[C@@H](O)[C@H]1O[C@H](CO)[C@@H](O)[C@H](O)[C@@H]1O [Example 15, (2R,3S,4S,5S,6R)-2-((R)-Hydroxy (2-methyl-4-(quinolin-7-yl)phenyl)methyl)-6-(hydroxymethyl)-tetrahydro-2H-pyran-3,4,5-triol]",0.015 µM
23,"CNc1cc(-c2ccc([C@@H](O)[C@H]3O[C@H](CO)[C@@H](O)[C@H](O)[C@@H]3O)c(C)c2)ccn1 [Example 24, (2R,3S,4S,5S,6R)-2-((R)-Hydroxy (2-methyl-4-(2-(methylamino)pyridin-4-yl)phenyl)methyl)-6-(hydroxymethyl)-tetrahydro-2H-pyran-3,4,5-triol]",0.032 µM
24,"O=C1NCCc2ccc(-c3ccc([C@@H](O)[C@H]4O[C@H](CO)[C@@H](O)[C@H](O)[C@@H]4O)c(C(F)(F)F)c3)cc21 [Example 33, 7-(4-((R)-Hydroxy ((2R,3S,4S,5S,6R)-3,4,5-trihydroxy-6-(hydroxymethyl)-tetrahydro-2H-pyran-2-yl)methyl)-3-(trifluoromethyl)phenyl)-3,4-dihydroisoquinolin-1 (2H)-one]",0.006 µM
25,"Cc1cc(-c2ccnc(Cl)c2)ccc1[C@@H](O)[C@H]1O[C@H](CO)[C@@H](O)[C@H](O)[C@@H]1O [Example 22, (2R,3S,4S,5S,6R)-2-((R)-(4-(2-Chloropyridin-4-yl)-2-methylphenyl) (hydroxy)methyl)-6-(hydroxymethyl)-tetrahydro-2H-pyran-3,4,5-triol]",0.027 µM
26,"Cc1cc(-c2ccc(C#N)cc2)ccc1[C@@H](O)[C@H]1O[C@H](CO)[C@@H](O)[C@H](O)[C@@H]1O [Example 46, 4′-((R)-hydroxy((2R,3S,4S,5S,6R)-3,4,5-trihydroxy-6-(hydroxymethyl)tetrahydro-2H-pyran-2-yl)methyl)-3′-methylbiphenyl-4-carbonitrile]",0.053 µM
